ChEMBL document CHEMBL3621089, “Fluorophore-tagged pharmacophores for antitumor cytotoxicity: Modified chiral lipidic dialkynylcarbinols for cell imaging” (Bioorg Med Chem Lett, 2015)

Experiments:
HCT-116 [1] = test: Cytotoxicity against human HCT116 cells assessed as live cells after 48 to 72 hrs by MTT assay; type: functional, cell-based
HCT-116 [2] = test: Drug uptake in human HCT116 cells at 1 uM after 30 mins by confocal microscopy; type: ADME, cell-based; conditions: hct-116, 0.5 h
HeLa = test: Drug uptake in human HeLa cells at 1 uM after 30 mins using Nile Red by confocal microscopy; type: ADME, cell-based; conditions: 0.5 h
HCT-116 [3] = test: Cytotoxicity against human HCT116 cells; type: functional, cell-based

SMILES	IC50 (HCT-116 [1])	Drug uptake (HCT-116 [2])	Drug uptake (HeLa)	IC50 (HCT-116 [3])
C#CCCCCCCCCCCC#C[C@@H](O)C#C	370 nM			
C#C[C@H](O)C#CCCCCCCCCCCc1cn(CCCCc2ccc3ccc4cccc5ccc2c3c45)nn1	900 nM			
C#C[C@H](O)C#CCCCCCCCCCCc1cn(-c2cc3ccc(O)cc3oc2=O)nn1	3000 nM	Active		
C#C[C@H](O)C#CCCCCCCCCCCc1cn(CC2=C3C(C)=CC(C)=[N+]3[B-](F)(F)n3c(C)cc(C)c32)nn1	10000 nM	Active	Active	
C#C[C@H](O)C#CCCCCCCCCCCc1cn(CCCNc2ccc([N+](=O)[O-])c3nonc23)nn1	1100 nM	Active		
C#C[C@@H](O)/C=C/CCCCCCCCCCCCCCC	90 nM			60 nM
